Measured values reported in patent publication US9822138B2, “Antiviral beta-amino acid ester phosphodiamide compounds” (Merck Sharp & Dohme Corp., priority 2015, dated 2017).
Where two headings read alike, the source gives them in different places.

How the values were obtained:
[1] = system: HIV-1 (H9/IIIB strain); test: microbe, parasite or virus in culture; type: cell-based
Experimental: Assessing Antiviral Potency in a Multiple Round HIV-1 Infection Assay (Viking Assay)
The antiviral activity of the tenofovir prodrugs of the Examples herein was assessed in an assay that measures the rate of replication of HIV in cell culture, termed the Viking assay (Viral KINetics in Green cells) and performed as follows. HIV-1 replication was monitored using MT4-gag-GFP clone D3 (hereafter designated MT4-GFP), which are MT-4 cells modified to harbor a GFP reporter gene, the expression of which is dependent on the HIV-1 expressed proteins tat and rev. Productive infection of an MT4-GFP cell with HIV-1 results in GFP expression approximately 24 h post-infection. MT4-GFP cells were maintained at 37° C./5% CO2/90% relative humidity in RPMI 1640 supplemented with 10% fetal bovine serum, 100 U/ml penicillin/streptomycin, and 400 μg/ml G418 to maintain the reporter gene. For infections, MT4-GFP cells were placed in the same medium lacking G418 and infected overnight with HIV-1 (H9/IIIB strain) virus at an approximate multiplicity of infection of 0.01 in the same incubation conditions. Cells were then washed and re-suspended in either RPMI 1640 supplemented with 10% or 50% normal human serum (NHS) at 1.6×10^5 cells/mL (10% NHS or 50% NHS, respectively). Compound plates were prepared by dispensing compounds dissolved in DMSO into wells of 384 well poly-D-lysine-coated plates (0.2 μl/well) using an ECHO acoustic dispenser. Each compound was tested in a 10-point serial 3-fold dilution (typical final concentrations: 8.4 μM-0.42 nM). Controls included no inhibitor (DMSO only) and a combination of three antiviral agents (efavirenz, indinavir, an in-house integrase strand transfer inhibitor at final concentrations of 4 μM each). Cells were added ([…]) to compound plates and the infected cells were maintained at 37° C./5% CO2/90% relative humidity.
Infected cells were quantified at two time points, ˜48 h and ˜72 h post-infection, by counting the number of green cells in each well using an Acumen eX3 scanner. […] Inhibition of R0 is calculated for each well, and IC50s determined by non-linear 4-parameter curve fitting.

[2] = Prodrug stability assay in bio-relevant media (FaSSIF with pancreatin; GI tract stability); type: in vitro ADME; settings: parent prodrug area at 5 h divided by area at 0 h; 37° C.; 0.5 mg/mL pancreatin in FaSSIF
Experimental: Prodrug Stability Assay in Bio-Relevant Media
The following assay was employed to evaluate the stability of the prodrugs in simulated gastrointestinal tract conditions. Preparation of fasted state simulated intestinal fluid (FaSSIF) using Phares SIF Powder was carried out according to protocols from Phare Drug Delivery AG (Baselland, Switzerland). For sample preparation, 10 μL stock solutions (10 mM) of prodrug substance in DMSO was added to 990 μL of 0.5 mg/mL Pancreatin solution (Fisher CAS#8049-47-6) in FaSSIF. Two samples were prepared for each compound at initial. If the sample was clear solution at the beginning, ran one sample directly as initial by HPLC; if the sample was not clear at starting, diluted the sample by 100% ACN. Put the other sample under 37° C. and observed the sample at 5 h time-point. At 5 h time point, if the sample was clear solution then performed HPLC analysis directly; if it was not clear solution, diluted the sample by 100% ACN and assayed by HPLC. All the samples were vortexed for 3 min and observed before injection. For the diluted samples, the area will be multiplied by a factor when data analysis. The analysis was carried out with an Agilent 1100 series HPLC with autosampler. The column was usually a Poroshell 120 EC-C18, 4.6×50 mm, 2.7 μm. The flow rate was 1.8 mL/min, and the injection volume was 5 or 10 μL. UV detection was in the range 210-400 nm. The mobile phase consisted of solvent A (water plus 10 mM tetrabutylammonium bromide) and solvent B (acetonitrile) with a gradient of 90% solvent A at 0 min changing to 95% solvent B over 6 min, maintained for 1.5 min, then reverting to 90% solvent A over 1.6 min. The area of the parent in prodrug at 5 h time point was divided by the area of the parent in prodrug at 0 h time point, to generate the % claimed parent ratio, which are summarized in Table 5 for GI Tract stability.

[3] = Human immunodeficiency virus 1, IIIB, 10% normal human serum, MT4-GFP cells infected with HIV-1 H9/IIIB, inhibition of reproductive ratio R0, read-out: Viking, IC50 (10% NHS)
[4] = Human immunodeficiency virus 1, IIIB, 50% normal human serum, MT4-GFP cells infected with HIV-1 H9/IIIB, inhibition of reproductive ratio R0, read-out: Viking, IC50 (50% NHS)
[5] = 10% normal human serum, MT4-GFP cells infected with HIV-1 H9/IIIB, inhibition of reproductive ratio R0, read-out: Viking, IC50 (10% NHS)
[6] = 50% normal human serum, MT4-GFP cells infected with HIV-1 H9/IIIB, inhibition of reproductive ratio R0, read-out: Viking, IC50 (50% NHS)
[7] = Human immunodeficiency virus 1, 10% normal human serum, MT4-GFP cells infected with HIV-1 H9/IIIB, inhibition of reproductive ratio R0, read-out: Viking, IC50 (10% NHS)
[8] = Human immunodeficiency virus 1, 50% normal human serum, MT4-GFP cells infected with HIV-1 H9/IIIB, inhibition of reproductive ratio R0, read-out: Viking, IC50 (50% NHS)

| Compound | IC50 [1, 4] [µM] | IC50 [1, 5] [µM] | IC50 [1, 6] [µM] | other results |
| --- | --- | --- | --- | --- |
| CC(C)OC(=O)[C@@H](C)CNP(=O)(CO[C@H](C)Cn1cnc2c(N)ncnc21)NC[C@H](C)C(=O)OC(C)C [Example 3, 1-methylethyl (5S,11S)-8-{[(1R)-2-(6-amino-9H-purin-9-yl)-1-methylethoxy]methyl}-2,5,11-trimethyl-4-oxo-3-oxa-7,9-diaza-8-phosphadodecan-12-oate 8-oxide] | > 8.4 | – | – | IC50 [1, 3]: 7.34 µM |
| CC(C)OC(=O)[C@@H](C)CNP(=O)(CO[C@H](C)Cn1cnc2c(N)ncnc21)N[C@H](C)C(=O)OC1CCCCC1 (single isomer, unassigned) [Example 21B] | – | 0.27 | 0.836 | – |
| CC(C)OC(=O)CCNP(=O)(CO[C@H](C)Cn1cnc2c(N)ncnc21)NCCC(=O)OC(C)C [Example 1, 1-methylethyl 8-{[(1R)-2-(6-amino-9H-purin-9-yl)-1-methylethoxy]methyl}-2-methyl-4-oxo-3-oxa-7,9-diaza-8-phosphadodecan-12-oate 8-oxide] | – | – | – | IC50 ([1]; Human immunodeficiency virus 1, IIIB, read-out: Viking, IC50 (10% NHS)): > 8.4 µM; IC50 ([1]; Human immunodeficiency virus 1, IIIB, read-out: Viking, IC50 (50% NHS)): > 8.4 µM |
| CC(C)OC(=O)C[C@H](C)NP(=O)(CO[C@H](C)Cn1cnc2c(N)ncnc21)N[C@H](C)C(=O)OC1CCC1 (single isomer, unassigned) [Example 19B] | – | 3.79 | > 8.4 | – |
| CC(C)OC(=O)[C@@H](C)CNP(=O)(CO[C@H](C)Cn1cnc2c(N)ncnc21)N[C@H](C)C(=O)OC1CCCC1 (single isomer, unassigned) [Example 22A] | 0.48 | 0.4 | – | – |
| CC(C)OC(=O)[C@H](C)NP(=O)(CO[C@H](C)Cn1cnc2c(N)ncnc21)NC[C@H](C)C(=O)OC(C)C (single isomer, unassigned) [Example 6A] | – | – | – | GI Tract stability [2]: 99.5%; IC50 [1, 7]: 0.02 µM; IC50 [1, 8]: 0.0593 µM |
| CC(C)OC(=O)[C@@H](C)CNP(=O)(CO[C@H](C)Cn1cnc2c(N)ncnc21)N[C@H](C)C(=O)OC1CCCCC1 (single isomer, unassigned) [Example 21A] | – | 1.46 | – | – |
| CC(C)OC(=O)[C@@H](C)CNP(=O)(CO[C@H](C)Cn1cnc2c(N)ncnc21)N[C@@H](C)C(=O)OC1CCCC1 (single isomer, unassigned) [Example 11A] | 0.104 | – | – | IC50 [1, 3]: 0.0215 µM |
| CCCCOC(=O)[C@H](C)NP(=O)(CO[C@H](C)Cn1cnc2c(N)ncnc21)NC[C@H](C)C(=O)OC(C)C (single isomer, unassigned) [Example 15A] | 0.146 | – | – | IC50 [1, 3]: 0.0196 µM |
| CC(C)OC(=O)C[C@@H](C)NP(=O)(CO[C@H](C)Cn1cnc2c(N)ncnc21)N[C@H](C)CC(=O)OC(C)C [Example 2, 1-methylethyl (6R,10R)-8-{[(1R)-2-(6-amino-9H-purin-9-yl)-1-methylethoxy]methyl}-2,6,10-trimethyl-4-oxo-3-oxa-7,9-diaza-8-phosphadodecan-12-oate 8-oxide] | > 8.4 | – | – | IC50 [1, 3]: > 8.4 µM |
| CCCCCOC(=O)C(C)(C)N[P@@](=O)(CO[C@H](C)Cn1cnc2c(N)ncnc21)N[C@@H](CC(=O)OC(C)C)C(C)C [Example 24B] | – | – | – | IC50 [1, 7]: 0.0289 µM; IC50 [1, 8]: 0.17 µM |
| CC(C)OC(=O)[C@@H](C)CNP(=O)(CO[C@H](C)Cn1cnc2c(N)ncnc21)N[C@@H](C)C(=O)OC1CCC1 (single isomer, unassigned) [Example 12A] | 0.119 | – | – | IC50 [1, 3]: 0.0417 µM |
| CC(C)OC(=O)CCNP(=O)(CO[C@H](C)Cn1cnc2c(N)ncnc21)N[C@H](C)C(=O)OC1CCC1 (single isomer, unassigned) [Example 23A] | – | > 8.4 | > 8.4 | – |
| CC(C)OC(=O)C[C@H](C)NP(=O)(CO[C@H](C)Cn1cnc2c(N)ncnc21)N[C@@H](C)C(=O)OC(C)C (single isomer, unassigned) [Example 8B] | – | 0.439 | 0.531 | – |
| CC(C)OC(=O)[C@H](C)CNP(=O)(CO[C@H](C)Cn1cnc2c(N)ncnc21)N[C@@H](C)C(=O)OC(C)C (single isomer, unassigned) [Example 10B] | – | 0.435 | 0.908 | – |
| CCCCCCOC(=O)C(C)(C)NP(=O)(CO[C@H](C)Cn1cnc2c(N)ncnc21)N[C@@H](CC(=O)OC(C)C)C(C)C (single isomer, unassigned) [Example 28A] | – | 0.0191 | 0.0585 | – |
| CC(C)OC(=O)[C@H](C)NP(=O)(CO[C@H](C)Cn1cnc2c(N)ncnc21)NC[C@H](C)C(=O)OC(C)C (some centres unmarked) [Example 6B] | – | – | – | IC50 [1, 7]: 0.258 µM; IC50 [1, 8]: 0.494 µM |
| CC(C)OC(=O)[C@H](C)CNP(=O)(CO[C@H](C)Cn1cnc2c(N)ncnc21)NC[C@@H](C)C(=O)OC(C)C [Example 4, 1-methylethyl (5R,11R)-8-{[(1R)-2-(6-amino-9H-purin-9-yl)-1-methylethoxy]methyl}-2,5,11-trimethyl-4-oxo-3-oxa-7,9-diaza-8-phosphadodecan-12-oate 8-oxide] | > 8.4 | – | – | IC50 [1, 3]: 6.46 µM |
| CC(C)OC(=O)CCNP(=O)(CO[C@H](C)Cn1cnc2c(N)ncnc21)N[C@@H](C)C(=O)OC(C)C (single isomer, unassigned) [Example 7B] | – | – | – | IC50 [1, 7]: 0.378 µM; IC50 [1, 8]: 0.393 µM |
| CC(C)OC(=O)[C@@H](C)CNP(=O)(CO[C@H](C)Cn1cnc2c(N)ncnc21)N[C@H](C)C(=O)OC1CCC1 (single isomer, unassigned) [Example 20A] | – | 0.859 | 4.11 | – |
| CC(C)OC(=O)C[C@@H](C)NP(=O)(CO[C@H](C)Cn1cnc2c(N)ncnc21)N[C@H](C)C(=O)OC1CCC1 (some centres unmarked) [Example 18B] | – | – | – | IC50 [1, 7]: 3.81 µM; IC50 [1, 8]: 7.12 µM |
| CC(C)OC(=O)[C@@H](C)CNP(=O)(CO[C@H](C)Cn1cnc2c(N)ncnc21)N[C@@H](C)C(=O)OC1CCCCC1 (single isomer, unassigned) [Example 13B] | – | 0.0342 | 0.175 | – |
| CC(C)OC(=O)C[C@@H](C)NP(=O)(CO[C@H](C)Cn1cnc2c(N)ncnc21)N[C@@H](C)C(=O)OC(C)C (single isomer, unassigned) [Example 9B] | – | 0.378 | 0.8 | – |
| CCCCCOC(=O)C(C)(C)NP(=O)(CO[C@H](C)Cn1cnc2c(N)ncnc21)N[C@@H](C)CC(=O)OC(C)C (single isomer, unassigned) [Example 26A] | – | 0.0233 | 0.116 | – |
| CC(C)OC(=O)C[C@H](C)NP(=O)(CO[C@H](C)Cn1cnc2c(N)ncnc21)N[C@@H](C)CC(=O)OC(C)C [Example 5, 1-methylethyl (6S,10S)-8-{[(1R)-2-(6-amino-9H-purin-9-yl)-1-methylethoxy]methyl}-2,6,10-trimethyl-4-oxo-3-oxa-7,9-diaza-8-phosphadodecan-12-oate 8-oxide] | > 8.4 | – | – | IC50 [1, 3]: > 8.4 µM |
